Assay results published in article PMC9818021, “Targets, Mechanisms and Cytotoxicity of Half-Sandwich Ir(III) Complexes Are Modulated by Structural Modifications on the Benzazole Ancillary Ligand” (Cancers, 2022).

Assays:
[1] = Stopped flow kinetics of DMSO substitution by OH-; type: physicochemical
Experimental: The slow kinetic measurements were performed with the previous spectrophotometer while the fast kinetic measurements were performed in a stopped flow Bio-Logic SFM-300 spectrophotometer with an absorbance detection system and dead time below 3 ms. The kinetic curves, obtained averaging out at least five shots, were analysed with the Jandel (AISN software, Mapleton, OR) fitting package.

[2] = tested on: gene expression (stress response, apoptosis, cell cycle genes); test: Microarray differential gene expression (Affymetrix Human Gene 2.1 ST); type: cell-based; conditions: vs. Control, 6 h after treatment
Experimental: DNA damage was measured using EpiQuik 8-OHdG DNA Damage Quantification Direct Kit (colorimetric) (Fischer, Waltham, MA, USA, P600396); The mitochondrial cytochrome C release was evaluated using the “Millipore’s FlowCellect Cytochrome C Kit (Millipore, FCCH100110)”. Lactate dehydrogenase activity release was measured in the culture medium using Cytotoxicity Detection Kit (Roche Diagnostic, Barcelona, Spain, 11 644 793 001). Protein synthesis was determined using Click-iT Plus O-propargyl-puromycin (OPP) Protein Synthesis Assay Kit (Invitrogen™, Waltham, MA, USA). Measurement of GSH/GSSG was determined with GSH/GSSG-Glo Assay (Promega, V6611). Measurements of OCR and ECAR with Seahorse XFp (Agilent Technologies) were determined using the XFp Cell Mito Stress Test Kit (103010-100) and XFp Glycolysis Stress Test Kit (103017-100). ATP measurement was determined with Cell Titer-Glo Luminescent Cell Viability Assay (Promega, Madison, WI, USA, G7570). Determination of DNA damage using phosphorylated H2AX measurement were performed as previously described. Cardiolipin oxidation using the fluorophore Nonyl Acridine Orange (NAO, Thermo Scientific, A1372) was performed as described. Cell viability was determined by Hoechst inclusion and Propidium iodide (PI) exclusion by standard protocols. TEM analysis were performed as described. Cell cycle analysis by flow cytometry and microarrays analysis were performed as described. Arrays data have been deposited in the ArrayExpress database at EMBL-EBI (www.ebi.ac.uk/arrayexpress) under accession number E-MTAB-860 (10 November 2022)
Studies of the effect of 1[C,NH] on gene expression were performed and assessed 6 h after treatment, in a middle phase, when most cells were still alive (see S.I. Movie S2) but already with characteristic morphological features of apoptosis (Movie S1). Gene expression profiles of cells was determined by Affymetrix Human Gene 2.1 ST Array Plate in three independent experiments. In order to confirm the microarray data, we selected some genes involved in several key pathways: stress response, apoptosis and cell cycle to validate the changes in the expression by RT-qPCR. Results indicated a good correlation between microarray analysis and RT-qPCR. (Table S11). […] Note that not all genes are annotated with these databases. However, the negative regulation of metabolic process and negative regulation of macromolecule metabolic process are highly represented, and ~38% (84) of all genes could be classified in this way. […] The effect of 1[C,NH] on cell cycle progression was further assessed by flow cytometry. […] In summary, mRNA expression analysis is in good agreement with the elevation of ROS, oxidative stress response, cell cycle arrest and induction of apoptosis.

BALB/c mice = test: Acute toxicity in healthy mice; type: in vivo, mouse; conditions: dissolved in PBS
Excerpt: Female mice weighing approximately 20–25 g, 8–12 weeks were obtained from Janvier Laboratories (Le Genest-Saint-Isle, France). All mice received a standard laboratory diet and water ad libitum. The use of immunosuppressed animals is always a limitation since they are not a true reflection of an animal with a functional immune system and, therefore, can affect both the toxicological response and the biodistribution of a compound, but they are essential to be able to implant human tumor cells, otherwise the tumor would be rejected by the immune system. Therefore, in order to analyze the biodistribution, toxicology and efficacy of a compound against a tumor, it is necessary to use different animals. Animal studies were approved by the Bioethics Committee of the Universidade de Santiago de Compostela and were done in compliance with the principles of laboratory animal care according to Spanish national law (RD 53/2013).

[3] = tested on: gene expression (stress response, apoptosis, cell cycle genes); test: RT-qPCR differential gene expression; type: cell-based, human; conditions: vs. Control, 6 h after treatment
Experimental: (§1) Specific assays with 1[C,NH] complex were performed according to manufacturer’s instructions using the following reagents from Molecular Probes (Thermo Fisher Scientific): Measurements of ROS: Dihydroethidium (DHE, D11347) and 2′, 7′-dichlorodihydrofluorescein diacetate (H2DCFDA, D399); detection of caspases 3/7: CellEvent Caspase-3/7 Green Detection Reagent (C10423); Cell viability: Live/Dead Cell Imaging Kit (R37601); Analysis of cytosolic calcium concentration: Fluo3/AM (F23915); Analysis of MMP: Tetramethylrhodamine methyl ester perchlorate (TMRM, T668). RT-qPCR’s assays were performed with the following primers/probes from Thermo Fisher Scientific: DCP1A (Hs00218198-m1), FOSB (Hs00171851-m1), EGR1(Hs0015928-m1), ATF3 (Hs00231069-m1), DDIT3 (Hs00358796-g1), PP1R15A (Hs00169585-m1), CHAC1(Hs00225520-m1), MIR9-1 (Hs04231512-s1), ATP1B2 (Hs00155922-m1), BBC3 (Hs00248075-m1), BCL2L11 (Hs00798019-s1), PMAIP1 (Hs00560402-m1), SKP2 (Hs01021864-m1) and HIST1H1B (Hs00271207-s1). RT-qPCR experiments were performed as described.

A549 cells [4] = test: Cell cycle analysis by flow cytometry; type: cell-based, human; conditions: 8 µM, 24 h, PI staining
Experimental: DNA damage was measured using EpiQuik 8-OHdG DNA Damage Quantification Direct Kit (colorimetric) (Fischer, Waltham, MA, USA, P600396); The mitochondrial cytochrome C release was evaluated using the “Millipore’s FlowCellect Cytochrome C Kit (Millipore, FCCH100110)”. Lactate dehydrogenase activity release was measured in the culture medium using Cytotoxicity Detection Kit (Roche Diagnostic, Barcelona, Spain, 11 644 793 001). Protein synthesis was determined using Click-iT Plus O-propargyl-puromycin (OPP) Protein Synthesis Assay Kit (Invitrogen™, Waltham, MA, USA). Measurement of GSH/GSSG was determined with GSH/GSSG-Glo Assay (Promega, V6611). Measurements of OCR and ECAR with Seahorse XFp (Agilent Technologies) were determined using the XFp Cell Mito Stress Test Kit (103010-100) and XFp Glycolysis Stress Test Kit (103017-100). ATP measurement was determined with Cell Titer-Glo Luminescent Cell Viability Assay (Promega, Madison, WI, USA, G7570). Determination of DNA damage using phosphorylated H2AX measurement were performed as previously described. Cardiolipin oxidation using the fluorophore Nonyl Acridine Orange (NAO, Thermo Scientific, A1372) was performed as described. Cell viability was determined by Hoechst inclusion and Propidium iodide (PI) exclusion by standard protocols. TEM analysis were performed as described. […]

A549 cells [5] = test: Mitochondrial membrane potential (TMRM); type: cell-based, human; conditions: 16 µM, TMRM 50 nM
Experimental: as §1

Cc1c(C)c(C)[c-](C)c1C.[Cl][Ir]1[O]c2ccccc2-c2sc3ccccc3[n+]21 [8[CO,S], [(η^5-Cp*)IrCl(κ^2-O,N-hpbtz)]]
k (substitution of DMSO by OH-) ([1]; pH = 10.2): 39 s⁻¹ | k (substitution of DMSO by OH-) ([1]; pH = 11.5): 112 s⁻¹

Cc1c(C)c(C)[c-](C)c1C.[Cl][Ir]1[c]2ccccc2-c2[nH]c3ccccc3[n+]21 [1[C,NH], [(η^5-Cp*)IrCl(κ^2-N,C-pbim)]]
ATF3 Microarray (Fold Change (linear)) [2]: 37 | ATP1B2 Microarray (Fold Change (linear)) [2]: 34.8 | BBC3 Microarray (Fold Change (linear)) [2]: 3.3 | BCL2L11 Microarray (Fold Change (linear)) [2]: 5.1 | CHAC1 Microarray (Fold Change (linear)) [2]: 3 | DDIT3 Microarray (Fold Change (linear)) [2]: 23 | EGR1 Microarray (Fold Change (linear)) [2]: > 100 | FOSB Microarray (Fold Change (linear)) [2]: > 100 | HIST1H1B Microarray (Fold Change (linear)) [2]: -6.6 | MIR9-1 Microarray (Fold Change (linear)) [2]: 26.8 | PMAIP1 Microarray (Fold Change (linear)) [2]: 7.1 | PPP1R15A Microarray (Fold Change (linear)) [2]: 11 | SKP2 Microarray (Fold Change (linear)) [2]: -4.7 | Maximum tolerated dose (BALB/c mice): 1.3 mg/kg | ATF3 RT-qPCR (2-ΔΔCt) [3]: > 100 | ATP1B2 RT-qPCR (2-ΔΔCt) [3]: 19.5 | BBC3 RT-qPCR (2-ΔΔCt) [3]: 3.7 | BCL2L11 RT-qPCR (2-ΔΔCt) [3]: 3.6 | CHAC1 RT-qPCR (2-ΔΔCt) [3]: 3.5 | DDIT3 RT-qPCR (2-ΔΔCt) [3]: 7.8 | EGR1 RT-qPCR (2-ΔΔCt) [3]: > 100 | FOSB RT-qPCR (2-ΔΔCt) [3]: > 100 | HIST1H1B RT-qPCR (2-ΔΔCt) [3]: 0.1 | MIR9-1 RT-qPCR (2-ΔΔCt) [3]: > 100 | PMAIP1 RT-qPCR (2-ΔΔCt) [3]: 3.4 | PPP1R15A RT-qPCR (2-ΔΔCt) [3]: 14.8 | SKP2 RT-qPCR (2-ΔΔCt) [3]: 0.3 | Cell cycle distribution (A549 cells [4]): percentage of cells in G0/G1 phase increased and cells in G2/M phase decreased | Mitochondrial membrane potential (MMP) (A549 cells [5]): quick and deep dissipation of MMP
